Measurements taken from ChEMBL document CHEMBL1127439, “Structure-activity relationship studies of central nervous system agents. 13. 4-[3-(Benzotriazol-1-yl)propyl]-1-(2-methoxyphenyl)piperazine, a new putative 5-HT1A receptor antagonist, and its analogs” (J Med Chem, 1994).

Key:
Rattus norvegicus [1] = species on record: Rattus norvegicus; assay: Selectivity is the ratio between Ki values of 5-HT2 and 5-HT1A
[2] = molecular target: Serotonin 2 (5-HT2) receptor (Rattus norvegicus, UniProt P30994+P08909+P14842); assay: Tested in vitro for receptor binding affinity against 5-hydroxytryptamine 2 receptor using radioligand [3H]ketanserin; format: protein assay
[3] = molecular target: T1, 5-hydroxytryptamine receptor 1A (Rattus norvegicus, UniProt P19327); assay: Tested in vitro for receptor binding affinity against 5-hydroxytryptamine 1A receptor using radioligand [3H]8-OH-DPAT
T1 sequence (P19327 whole entry): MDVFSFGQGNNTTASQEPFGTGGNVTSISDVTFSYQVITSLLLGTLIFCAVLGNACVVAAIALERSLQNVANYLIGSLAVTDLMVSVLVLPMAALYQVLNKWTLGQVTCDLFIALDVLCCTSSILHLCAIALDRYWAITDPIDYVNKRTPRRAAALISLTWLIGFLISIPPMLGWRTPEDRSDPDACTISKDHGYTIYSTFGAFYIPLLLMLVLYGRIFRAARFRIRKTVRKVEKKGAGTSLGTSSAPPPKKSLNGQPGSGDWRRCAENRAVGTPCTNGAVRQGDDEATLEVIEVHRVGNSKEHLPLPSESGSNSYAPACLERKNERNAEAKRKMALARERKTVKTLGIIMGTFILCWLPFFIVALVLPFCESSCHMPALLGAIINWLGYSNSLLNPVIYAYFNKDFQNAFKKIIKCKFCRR

Rattus norvegicus [4] = assay: Tested for the effect on 8-OH-DPAT-induced lower lip retraction (LLR) in rat at dosage of 10 mg/kg; format: functional
Rattus norvegicus [5] = assay: Tested for the induction of lower lip retraction (LLR) by the investigated compounds in rat at dosage of 10 mg/kg; format: functional
Mus musculus [6] = assay: Effect on body temperature in mice at intraperitoneal dosage of 10 mg/kg, (compound administered 30 min before the test) after 30 min; format: functional
Mus musculus [7] = assay: Effect on body temperature in mice at intraperitoneal dosage of 10 mg/kg, (compound administered 30 min before the test) after 60 min; format: functional
Rattus norvegicus [8] = assay: Tested for the effect on 8-OH-DPAT-induced behavior in reserpine pretreated rat against flat body posture at dosage of 10 mg/kg; format: functional
Mus musculus [9] = assay: Effect on 8-OH-DPAT-induced hypothermia in mice (5 mg/kg) at intraperitoneal dosage of 10 mg/kg of compound after 45 mins.; format: functional
Mus musculus [10] = assay: Effect on 8-OH-DPAT-induced hypothermia in mice (5 mg/kg) at intraperitoneal dosage of 10 mg/kg of compound after 60 mins; format: functional
Mus musculus [11] = assay: Effect on 8-OH-DPAT-induced hypothermia in mice (5 mg/kg) at intraperitoneal dosage of 10 mg/kg of compound after 30 mins; format: functional
Mus musculus [12] = assay: Effect on 8-OH-DPAT-induced hypothermia in mice (5 mg/kg) at intraperitoneal dosage of 10 mg/kg of compound after 15 mins; format: functional
Rattus norvegicus [13] = assay: Tested for the effect on 8-OH-DPAT-induced behavior in reserpine pretreated rat against forepaw treading at dosage of 10 mg/kg; format: functional
Mus musculus [14] = assay: Effect on body temperature in mice at intraperitoneal dosage of 10 mg/kg, (compound administered 30 min before the test) after 45 min; format: functional

With `CCCN1CCN(c2ccccc2OC)CC1` the Selectivity (Rattus norvegicus [1]) was 13 and the Ki [2] was 3290 nM.
Work on `COc1ccccc1N1CCN(CCn2nc3ccccc3n2)CC1` yielded a Ki [3] of 41 nM, a Selectivity (Rattus norvegicus [1]) of 43 and a Ki [2] of 1760 nM.
For `CCN1CCN(c2ccccc2OC)CC1`, the Ki [3] was 203 nM, the Selectivity (Rattus norvegicus [1]) was 15 and the Ki [2] was 3120 nM.
`COc1ccccc1N1CCN(C[C@@H](C(=O)NC(C)(C)C)c2ccccc2)CC1` was tested, and the LLR score (Rattus norvegicus [4]) was 0.8, the LLR score (Rattus norvegicus [5]) was 0.1 and the Delta t (Mus musculus [6]) was 0.2 °C. For the same compound, the Delta t (Mus musculus [7]) was 0.2 °C, the Behavioral score (Rattus norvegicus [8]) was 9.7 and the Delta t (Mus musculus [9]) was 0.3 °C. The Delta t (Mus musculus [10]) was 0.1 °C, the Delta t (Mus musculus [11]) was 0 °C and the Delta t (Mus musculus [12]) was 0.2 °C. It also gave a Behavioral score (Rattus norvegicus [13]) of 1 and a Delta t (Mus musculus [14]) of 0.2 °C.
